Reference: ChEMBL document CHEMBL1132903 (Bioorg Med Chem Lett, 2000)
Where a SMILES comes first, the peptide text is derived from it.

Experiments:
Serine protease 1 [1] = target: T1, Serine protease 1 (Homo sapiens, UniProt P07477)
Chymotrypsinogen A [2] = target: T2, Chymotrypsinogen A (Bos taurus, UniProt P00766); experiment: Competitive inhibition constant against Chymotrypsinogen using the reporter substrate Suc-AAPA-pNa
Neutrophil elastase [3] = target: T3, Neutrophil elastase (Homo sapiens, UniProt P08246); experiment: Competitive inhibition constant against Human neutrophil elastase using the reporter substrate MeO-AAPV-pNa
T3 sequence (P08246 whole entry): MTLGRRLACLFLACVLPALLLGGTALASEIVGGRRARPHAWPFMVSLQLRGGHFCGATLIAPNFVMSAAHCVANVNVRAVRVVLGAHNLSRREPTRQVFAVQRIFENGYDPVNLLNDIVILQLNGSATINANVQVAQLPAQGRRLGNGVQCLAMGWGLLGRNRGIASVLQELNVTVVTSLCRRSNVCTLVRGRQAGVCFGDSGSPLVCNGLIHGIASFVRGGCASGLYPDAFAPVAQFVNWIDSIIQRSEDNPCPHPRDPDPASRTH

[4] = target: Pancreatic elastase (Sus scrofa) (UniProt P08419+P00772); experiment: Inhibition constant for uncompetitive inhibition of Suc-AAPA and Pancreatic elastase; assay type: protein assay
Pancreatic elastase (Sus scrofa), sequence (P00772 whole entry, looked up, one chain of several): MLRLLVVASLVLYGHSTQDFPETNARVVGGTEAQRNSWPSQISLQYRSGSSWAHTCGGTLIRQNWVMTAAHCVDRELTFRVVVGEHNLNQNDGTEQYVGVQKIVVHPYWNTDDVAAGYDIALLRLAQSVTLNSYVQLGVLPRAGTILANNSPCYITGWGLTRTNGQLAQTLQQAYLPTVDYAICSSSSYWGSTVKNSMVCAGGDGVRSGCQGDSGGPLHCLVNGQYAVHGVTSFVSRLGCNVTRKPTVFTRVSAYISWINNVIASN

Neutrophil elastase [5] = target: T3, Neutrophil elastase; experiment: Competitive inhibition constant against Human neutrophil elastase using the reporter substrate MeO-AAPV-pNa; NI means no inhibition
[6] = target: T4, Chymotrypsin-like elastase family member 2A (Sus scrofa, UniProt P08419); experiment: Peptide was tested for inhibition constant for uncompetitive inhibition using Suc-AAPA and Pancreatic elastase
T4 sequence (P08419 whole entry): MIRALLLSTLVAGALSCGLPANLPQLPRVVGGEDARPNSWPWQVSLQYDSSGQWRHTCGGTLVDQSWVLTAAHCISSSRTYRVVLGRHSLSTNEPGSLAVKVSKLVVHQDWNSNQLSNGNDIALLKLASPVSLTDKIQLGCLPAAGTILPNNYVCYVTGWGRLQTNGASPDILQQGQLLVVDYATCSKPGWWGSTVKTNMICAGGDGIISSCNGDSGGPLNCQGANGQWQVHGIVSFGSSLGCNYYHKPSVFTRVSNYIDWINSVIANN

[7] = target: T5, Chymotrypsin-like elastase family member 2A (Sus scrofa) (UniProt P08419)
T5 sequence (whole entry): T4 sequence (P08419 whole entry)
Description: Peptide was tested for inhibition constant for competitive inhibition using Suc-AAPA-pNa and Pancreatic elastase

Chymotrypsinogen A [8] = target: T2, Chymotrypsinogen A; experiment: Competitive inhibition constant against Chymotrypsinogen using the reporter substrate Suc-AAPA-pNa; No inhibition
Serine protease 1 [9] = target: T1, Serine protease 1; experiment: Competitive inhibition constant against trypsin using the reporter substrate Ac-R-pNa

T1 sequence (P07477 whole entry): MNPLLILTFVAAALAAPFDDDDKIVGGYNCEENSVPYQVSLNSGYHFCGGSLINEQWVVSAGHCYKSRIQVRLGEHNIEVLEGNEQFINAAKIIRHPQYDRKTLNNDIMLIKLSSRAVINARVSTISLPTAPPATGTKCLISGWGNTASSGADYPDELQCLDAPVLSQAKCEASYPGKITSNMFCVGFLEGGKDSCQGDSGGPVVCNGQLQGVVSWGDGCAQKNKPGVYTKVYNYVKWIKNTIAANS

## CC[C@H](C)[C@H](NC(=O)[C@H](C)NC(=O)[C@H](CCC(=O)O)NC(=O)[C@H](CC(C)C)NC(=O)[C@H](Cc1ccccc1)NC(=O)[C@@H](N)CCSC)C(=O)N1CCC[C@H]1C(=O)N[C@@H](CCSC)C(=O)N[C@@H](CO)C(=O)O
Serine protease 1 [1]
  Ki: Not Active
Chymotrypsinogen A [2]
  Ki: 3100 µM

## CC[C@@H](C)[C@H](NC(=O)[C@H](CO)NC(=O)[C@H](CCSC)NC(=O)[C@@H]1CCCN1C(=O)[C@H](NC(=O)[C@@H](C)NC(=O)[C@@H](CCC(=O)O)NC(=O)[C@@H](CC(C)C)NC(=O)[C@@H](Cc1ccccc1)NC(=O)[C@H](N)CCSC)[C@H](C)CC)C(=O)O
Neutrophil elastase [3]
  Ki: 27 µM
[4]
  Ki': 340 µM

## CC(C)C[C@H](NC(=O)[C@@H](N)Cc1ccccc1)C(=O)N[C@@H](CCC(=O)O)C(=O)O (H-Phe-Leu-Glu-OH)
[4]
  Ki': 1400 µM

## CSCC[C@H](N)C(=O)N[C@@H](Cc1ccccc1)C(=O)N[C@@H](CC(C)C)C(=O)N[C@@H](C)C(=O)O (H-MFLA-OH)
[4]
  Ki': 890 µM

## CC[C@@H](C)[C@@H](NC(=O)[C@@H](CC)NC(=O)[C@@H](CCC(=O)O)NC(=O)[C@@H](CC(C)C)NC(=O)[C@@H](Cc1ccccc1)NC(=O)[C@H](N)CCSC)C(=O)N1CCC[C@H]1C(=O)O
[4]
  Ki': 220 µM

## CC[C@@H](C)[C@@H](NC(=O)[C@@H](C)NC(=O)[C@@H](CCC(=O)O)NC(=O)[C@@H](CC(C)C)NC(=O)[C@@H](Cc1ccccc1)NC(=O)[C@H](N)CCSC)C(=O)N1CCC[C@H]1C(=O)N[C@H](CCCCN)C(=O)O
[4]
  Ki': 640 µM
Neutrophil elastase [5]
  Ki: Not Active

## H-MFLEAIPMSIPPE-OH
Chymotrypsinogen A [2]
  Ki: 240 µM

## CC[C@H](C)[C@H](NC(=O)[C@H](C)NC(=O)[C@H](CCC(=O)O)NC(=O)[C@H](CC(C)C)NC(=O)[C@H](Cc1ccccc1)NC(=O)[C@@H](N)CCSC)C(=O)N1CCC[C@H]1C(=O)N[C@@H](CCSC)C(=O)O
[6]
  Ki: No inhibition
Serine protease 1 [1]
  Ki: Not Active
Chymotrypsinogen A [2]
  Ki: 2300 µM

## CC[C@H](C)[C@H](NC(=O)[C@H](C)NC(=O)[C@H](CCC(=O)O)NC(=O)[C@H](CC(C)C)NC(=O)[C@@H](N)Cc1ccccc1)C(=O)N1CCC[C@@H]1C(=O)N[C@H](CCSC)C(=O)O
[4]
  Ki': 530 µM

## CC[C@@H](C)[C@@H](NC(=O)[C@@H](C)NC(=O)[C@@H](CCC(=O)O)NC(=O)[C@@H](CC(C)C)NC(=O)[C@@H](Cc1ccccc1)NC(=O)[C@H](N)CCSC)C(=O)N1CCC[C@H]1C(=O)N[C@@H](CCSC)C(=O)O
Neutrophil elastase [3]
  Ki: 270 µM
[7]
  Ki': No inhibition
[4]
  Ki': 440 µM

## CSCC[C@@H](N)C(=O)N[C@H](Cc1ccccc1)C(=O)N[C@H](CC(C)C)C(=O)N[C@H](CCC(=O)O)C(=O)O
[4]
  Ki': 370 µM
Neutrophil elastase [5]
  Ki: Not Active
Serine protease 1 [1]
  Ki: Not Active
Chymotrypsinogen A [8]
  Ki: Not Active

## CC[C@@H](C)[C@@H](NC(=O)[C@@H](C)NC(=O)[C@@H](CCC(=O)O)NC(=O)[C@@H](CC(C)C)NC(=O)[C@@H](Cc1ccccc1)NC(=O)[C@H](N)CCSC)C(=O)N1CCC[C@H]1C(=O)N[C@@H](CCSC)C(=O)N[C@@H](CO)C(=O)O
Neutrophil elastase [3]
  Ki: 190 µM
[4]
  Ki': 1200 µM

## CC[C@@H](C)[C@@H](NC(=O)[C@@H](C)NC(=O)[C@@H](CCC(=O)O)NC(=O)[C@@H](CC(C)C)NC(C)=O)C(=O)N1CCC[C@H]1C(=O)N[C@@H](CCSC)C(=O)O
[4]
  Ki': 890 µM

## CC[C@H](C)[C@H](NC(=O)[C@H](CO)NC(=O)[C@H](CCSC)NC(=O)[C@@H]1CCCN1C(=O)[C@@H](NC(=O)[C@H](C)NC(=O)[C@H](CCC(=O)O)NC(=O)[C@H](CC(C)C)NC(=O)[C@H](Cc1ccccc1)NC(=O)[C@@H](N)CCSC)[C@@H](C)CC)C(=O)O
Serine protease 1 [1]
  Ki: Not Active
Chymotrypsinogen A [2]
  Ki: 160 µM

## CC[C@H](C)[C@H](NC(=O)[C@H](C)NC(=O)[C@H](CCC(=O)O)NC(=O)[C@H](CC(C)C)NC(=O)[C@H](Cc1ccccc1)NC(=O)[C@@H](N)CCSC)C(=O)N1CCC[C@H]1C(=O)N[C@@H](CCCCN)C(=O)O
Serine protease 1 [9]
  Ki: 540 µM
Chymotrypsinogen A [8]
  Ki: Not Active
